Measurements: ChEMBL document CHEMBL3259629, “Discovery and optimization of piperidyl-1,2,3-triazole ureas as potent, selective, and in vivo-active inhibitors of α/β-hydrolase domain containing 6 (ABHD6)” (J Med Chem, 2013)

How the values were obtained:
Details in all cases: Neuro2a, 3 nM
[1] = target: Tripeptidyl-peptidase 2 (Mus musculus) (UniProt Q64514)
Description: Inhibition of Tpp2 in mouse Neuro2a cells at 3 nM after 4 hrs by ABPP-SILAC assay

[2] = target: Platelet-activating factor acetylhydrolase 2, cytoplasmic (Mus musculus) (UniProt Q8VDG7)
Description: Inhibition of Pafah2 in mouse Neuro2a cells at 3 nM after 4 hrs by ABPP-SILAC assay

[3] = target: T1, 85/88 kDa calcium-independent phospholipase A2 (Mus musculus) (UniProt P97819)
T1 sequence (whole entry): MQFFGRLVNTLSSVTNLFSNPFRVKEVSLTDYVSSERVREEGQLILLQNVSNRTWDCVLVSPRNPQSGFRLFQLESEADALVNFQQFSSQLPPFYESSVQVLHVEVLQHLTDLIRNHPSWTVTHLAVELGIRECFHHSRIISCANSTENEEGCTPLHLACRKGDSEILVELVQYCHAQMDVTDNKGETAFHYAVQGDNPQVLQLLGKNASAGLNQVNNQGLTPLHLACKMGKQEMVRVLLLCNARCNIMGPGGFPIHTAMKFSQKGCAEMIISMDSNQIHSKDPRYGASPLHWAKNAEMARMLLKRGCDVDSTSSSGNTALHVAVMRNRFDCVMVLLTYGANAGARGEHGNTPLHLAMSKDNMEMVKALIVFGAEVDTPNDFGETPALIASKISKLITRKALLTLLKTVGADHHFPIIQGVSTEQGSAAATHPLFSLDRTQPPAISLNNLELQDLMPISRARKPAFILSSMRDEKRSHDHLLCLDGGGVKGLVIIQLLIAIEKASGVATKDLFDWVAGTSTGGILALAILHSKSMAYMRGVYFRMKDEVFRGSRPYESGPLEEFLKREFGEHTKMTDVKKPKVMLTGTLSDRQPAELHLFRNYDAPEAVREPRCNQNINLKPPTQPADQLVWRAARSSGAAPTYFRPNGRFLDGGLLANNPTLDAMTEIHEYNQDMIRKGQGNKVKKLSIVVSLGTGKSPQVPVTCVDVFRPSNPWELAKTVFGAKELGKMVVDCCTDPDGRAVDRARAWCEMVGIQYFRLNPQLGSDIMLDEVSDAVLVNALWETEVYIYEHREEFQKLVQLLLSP
Description: Inhibition of Pla2g6 in mouse Neuro2a cells at 3 nM after 4 hrs by ABPP-SILAC assay

[4] = target: T2, Monoacylglycerol lipase ABHD6 (Mus musculus) (UniProt Q8R2Y0)
T2 sequence (whole entry): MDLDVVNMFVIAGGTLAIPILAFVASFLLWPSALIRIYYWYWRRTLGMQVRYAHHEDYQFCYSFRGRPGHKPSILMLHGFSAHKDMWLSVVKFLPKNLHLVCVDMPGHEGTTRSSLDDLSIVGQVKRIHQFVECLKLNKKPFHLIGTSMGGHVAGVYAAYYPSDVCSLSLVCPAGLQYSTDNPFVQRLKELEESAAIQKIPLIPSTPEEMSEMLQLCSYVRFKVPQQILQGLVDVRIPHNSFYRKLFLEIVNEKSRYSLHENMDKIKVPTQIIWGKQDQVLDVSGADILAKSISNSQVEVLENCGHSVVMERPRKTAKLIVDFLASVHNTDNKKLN

[5] = target: T3, Acetylcholinesterase (Mus musculus) (UniProt P21836)
T3 sequence (whole entry): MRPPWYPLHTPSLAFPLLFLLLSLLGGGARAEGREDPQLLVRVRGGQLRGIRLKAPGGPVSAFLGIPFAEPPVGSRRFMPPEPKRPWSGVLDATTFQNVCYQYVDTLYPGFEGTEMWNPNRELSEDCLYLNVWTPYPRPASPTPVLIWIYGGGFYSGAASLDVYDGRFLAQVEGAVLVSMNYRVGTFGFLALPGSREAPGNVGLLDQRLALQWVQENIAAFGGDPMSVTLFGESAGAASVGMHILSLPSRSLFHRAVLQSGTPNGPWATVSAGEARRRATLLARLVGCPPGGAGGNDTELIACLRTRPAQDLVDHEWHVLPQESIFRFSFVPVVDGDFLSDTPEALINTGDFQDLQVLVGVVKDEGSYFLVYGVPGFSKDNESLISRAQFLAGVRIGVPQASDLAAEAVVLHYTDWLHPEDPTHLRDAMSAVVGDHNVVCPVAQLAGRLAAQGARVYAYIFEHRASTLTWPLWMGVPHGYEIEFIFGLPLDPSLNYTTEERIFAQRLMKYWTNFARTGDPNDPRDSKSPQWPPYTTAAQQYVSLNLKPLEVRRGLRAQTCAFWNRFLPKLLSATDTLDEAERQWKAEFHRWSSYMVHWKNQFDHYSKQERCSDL
Description: Inhibition of Ache in mouse Neuro2a cells at 3 nM after 4 hrs by ABPP-SILAC assay

[6] = target: T4, Lon protease homolog, mitochondrial (Mus musculus) (UniProt Q8CGK3)
T4 sequence (whole entry): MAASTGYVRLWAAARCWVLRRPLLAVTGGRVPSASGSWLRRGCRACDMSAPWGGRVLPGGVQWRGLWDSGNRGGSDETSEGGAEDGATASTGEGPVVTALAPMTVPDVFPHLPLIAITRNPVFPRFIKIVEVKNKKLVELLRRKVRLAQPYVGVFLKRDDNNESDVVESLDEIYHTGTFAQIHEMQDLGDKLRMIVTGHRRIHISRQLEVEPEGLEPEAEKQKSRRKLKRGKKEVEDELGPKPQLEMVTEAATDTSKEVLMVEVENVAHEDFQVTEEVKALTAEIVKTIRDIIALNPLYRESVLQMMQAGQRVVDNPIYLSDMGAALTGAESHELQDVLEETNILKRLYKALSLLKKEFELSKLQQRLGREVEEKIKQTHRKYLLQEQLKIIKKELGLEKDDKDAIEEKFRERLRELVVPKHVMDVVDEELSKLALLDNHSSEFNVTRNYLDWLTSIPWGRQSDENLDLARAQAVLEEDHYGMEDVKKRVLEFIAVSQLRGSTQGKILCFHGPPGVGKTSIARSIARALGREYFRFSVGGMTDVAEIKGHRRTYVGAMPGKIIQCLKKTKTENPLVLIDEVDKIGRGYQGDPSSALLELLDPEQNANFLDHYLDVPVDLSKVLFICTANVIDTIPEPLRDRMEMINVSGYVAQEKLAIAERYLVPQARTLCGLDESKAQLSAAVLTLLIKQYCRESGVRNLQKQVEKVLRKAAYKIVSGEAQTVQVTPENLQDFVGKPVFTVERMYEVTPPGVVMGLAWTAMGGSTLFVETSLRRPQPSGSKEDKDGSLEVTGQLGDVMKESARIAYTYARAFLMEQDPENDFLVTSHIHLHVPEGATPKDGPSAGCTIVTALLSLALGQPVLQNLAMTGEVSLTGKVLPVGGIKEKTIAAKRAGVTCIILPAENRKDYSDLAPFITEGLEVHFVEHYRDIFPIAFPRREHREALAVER
Description: Inhibition of Lonp1 in mouse Neuro2a cells at 3 nM after 4 hrs by ABPP-SILAC assay

Tripeptidyl-peptidase 2 (Mus musculus), sequence (Q64514 whole entry): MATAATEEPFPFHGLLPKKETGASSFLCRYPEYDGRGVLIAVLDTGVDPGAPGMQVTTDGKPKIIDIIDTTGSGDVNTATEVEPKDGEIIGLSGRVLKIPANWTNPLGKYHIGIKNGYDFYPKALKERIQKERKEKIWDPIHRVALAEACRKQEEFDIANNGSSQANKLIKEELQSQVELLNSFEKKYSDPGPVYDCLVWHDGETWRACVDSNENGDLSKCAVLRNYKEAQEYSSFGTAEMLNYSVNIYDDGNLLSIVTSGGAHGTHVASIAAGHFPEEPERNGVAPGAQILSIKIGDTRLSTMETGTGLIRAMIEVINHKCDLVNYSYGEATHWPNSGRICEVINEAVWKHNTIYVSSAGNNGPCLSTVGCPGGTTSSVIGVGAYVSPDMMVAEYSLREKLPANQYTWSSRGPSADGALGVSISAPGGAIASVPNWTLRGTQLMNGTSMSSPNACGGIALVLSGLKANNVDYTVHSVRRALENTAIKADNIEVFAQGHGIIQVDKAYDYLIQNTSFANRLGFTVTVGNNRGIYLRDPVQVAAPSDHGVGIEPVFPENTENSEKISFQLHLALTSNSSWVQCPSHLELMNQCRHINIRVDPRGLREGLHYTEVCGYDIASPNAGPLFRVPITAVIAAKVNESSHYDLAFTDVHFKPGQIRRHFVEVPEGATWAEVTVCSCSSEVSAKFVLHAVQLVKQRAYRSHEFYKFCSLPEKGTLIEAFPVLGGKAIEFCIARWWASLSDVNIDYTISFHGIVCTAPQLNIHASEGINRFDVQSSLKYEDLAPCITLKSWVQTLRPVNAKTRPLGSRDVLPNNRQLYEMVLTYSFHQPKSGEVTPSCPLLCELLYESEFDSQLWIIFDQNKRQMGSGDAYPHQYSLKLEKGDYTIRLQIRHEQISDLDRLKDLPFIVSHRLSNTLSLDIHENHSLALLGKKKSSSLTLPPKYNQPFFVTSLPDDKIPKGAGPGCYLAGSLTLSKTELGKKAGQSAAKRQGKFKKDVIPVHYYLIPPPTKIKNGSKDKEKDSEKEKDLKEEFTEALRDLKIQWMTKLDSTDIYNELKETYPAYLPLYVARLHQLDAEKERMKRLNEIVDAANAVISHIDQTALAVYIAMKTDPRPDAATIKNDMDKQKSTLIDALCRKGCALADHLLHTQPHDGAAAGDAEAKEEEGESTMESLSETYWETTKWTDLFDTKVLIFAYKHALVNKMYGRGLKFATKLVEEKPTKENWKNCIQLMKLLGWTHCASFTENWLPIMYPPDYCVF
Platelet-activating factor acetylhydrolase 2, cytoplasmic (Mus musculus), sequence (Q8VDG7 whole entry): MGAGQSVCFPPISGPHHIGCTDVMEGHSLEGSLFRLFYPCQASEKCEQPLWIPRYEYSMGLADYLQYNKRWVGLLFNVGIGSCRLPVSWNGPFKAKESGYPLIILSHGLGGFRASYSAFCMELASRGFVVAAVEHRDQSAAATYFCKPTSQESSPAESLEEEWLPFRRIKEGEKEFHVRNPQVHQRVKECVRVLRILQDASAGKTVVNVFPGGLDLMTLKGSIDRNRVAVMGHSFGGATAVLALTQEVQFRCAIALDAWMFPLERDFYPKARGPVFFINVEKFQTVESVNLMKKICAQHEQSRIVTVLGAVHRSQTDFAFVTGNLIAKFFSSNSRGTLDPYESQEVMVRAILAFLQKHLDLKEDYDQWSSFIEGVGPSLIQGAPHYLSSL

| Compound | inhibition [1] [%] | inhibition [2] [%] | inhibition [3] [%] | inhibition [4] [%] | inhibition [5] [%] | inhibition [6] [%] |
| --- | --- | --- | --- | --- | --- | --- |
| O=C(O)c1cccc(-c2ccc(-c3cn(C(=O)N4CCCCC4Cc4ccccc4)nn3)cc2)c1 (racemic) | < 50 | < 50 | < 50 | > 90 | < 50 | < 50 |
| O=C(N1CCCCC1c1ccccc1)n1cc(-c2ccc(-c3cccc(CO)c3)cc2)nn1 (racemic) | < 50 | < 50 | < 50 | > 90 | < 50 | < 50 |
| O=C(c1cccc(-c2ccc(-c3cn(C(=O)N4CCCCC4c4ccccc4)nn3)cc2)c1)N1CCCCC1 (racemic) | < 50 | < 50 | < 50 | > 80 | < 50 | < 50 |
